Laboratory results from PubChem BioAssay AID330 (DTP/NCI, 2004).
Several values for one entry are separate records, joined by “and”; a condition that tells them apart may be missing. Equal entries are not always repeated. Inconclusive results and toxic doses are left out. Rule for the calls: active = survival T/C of 150% or more; inactive = T/C below 125% in these data.

Test system: P388 leukemia ip, CD2F1 mice, survival T/C
Test: NCI In Vivo Anticancer Drug Screen. Data for tumor model P388 Leukemia (intraperitoneal) in CD2F1 (CDF1) mice
Details: endpoint: median survival time, higher = longer survival
Summary of the method: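 Mice carrying the transplanted tumor received test compound or vehicle. Survival was recorded in each group, and the value is the treated-group measurement divided by that of the vehicle-treated control group.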

[1] = dose: 50.0 mg/kg/injection, schedule: Q01DX005 (ip), vehicle: Klucel (hydroxypropylcellulose) (HPC)
[2] = dose: 100.0 mg/kg/injection, schedule: Q01DX005 (ip), vehicle: Klucel (hydroxypropylcellulose) (HPC)
[3] = dose: 200.0 mg/kg/injection, schedule: Q01DX005 (ip), vehicle: Klucel (hydroxypropylcellulose) (HPC)
[4] = dose: 100.0 mg/kg/injection, schedule: Q01DX009 (ip), vehicle: saline with Tween-80
[5] = dose: 200.0 mg/kg/injection, schedule: Q01DX009 (ip), vehicle: saline with Tween-80
[6] = dose: 50.0 mg/kg/injection, schedule: Q01DX009 (ip), vehicle: Klucel (hydroxypropylcellulose) (HPC)
[7] = dose: 100.0 mg/kg/injection, schedule: Q01DX009 (ip), vehicle: Klucel (hydroxypropylcellulose) (HPC)
[8] = dose: 25.0 mg/kg/injection, schedule: Q01DX009 (ip), vehicle: saline with Tween-80
[9] = dose: 50.0 mg/kg/injection, schedule: Q01DX009 (ip), vehicle: saline with Tween-80
[10] = dose: 100.0 mg/kg/injection, schedule: Q04DX003 (ip), vehicle: saline with Tween-80
[11] = dose: 200.0 mg/kg/injection, schedule: Q04DX003 (ip), vehicle: saline with Tween-80
[12] = dose: 50.0 mg/kg/injection, schedule: Q01DX009 (ip), vehicle: saline
[13] = dose: 100.0 mg/kg/injection, schedule: Q01DX009 (ip), vehicle: saline
[14] = dose: 200.0 mg/kg/injection, schedule: Q01DX009 (ip), vehicle: saline
[15] = dose: 100.0 mg/kg/injection, schedule: Q04DX002 (ip), vehicle: saline with Tween-80
[16] = dose: 200.0 mg/kg/injection, schedule: Q04DX002 (ip), vehicle: saline with Tween-80
[17] = dose: 400.0 mg/kg/injection, schedule: Q04DX002 (ip), vehicle: saline with Tween-80

Measured: T/C

CN1c2ccccc2SC2C(c3ccccc3)=NOC21 (stereo unspecified)
inactive: dose: 3.75 mg/kg/injection, schedule: Q01DX005 (ip), vehicle: saline with Tween-80 98 % of control | dose: 7.5 mg/kg/injection, schedule: Q01DX005 (ip), vehicle: saline with Tween-80 93 % of control | dose: 15.0 mg/kg/injection, schedule: Q01DX005 (ip), vehicle: saline with Tween-80 90 % of control | dose: 30.0 mg/kg/injection, schedule: Q01DX005 (ip), vehicle: saline with Tween-80 88 % of control | dose: 60.0 mg/kg/injection, schedule: Q01DX005 (ip), vehicle: saline with Tween-80 86 % of control | dose: 240.0 mg/kg/injection, schedule: Q01DX005 (ip), vehicle: saline with Tween-80 89 % of control

O=S(=O)(O/C(=C(\OS(=O)(=O)C(F)(F)F)c1ccccc1)c1ccccc1)C(F)(F)F
inactive: [1] 97 % of control | [2] 98 % of control | [3] 91 % of control

Nc1nc(=O)[nH]s1
inactive: dose: 6.25 mg/kg/injection, schedule: Q01DX009 (ip), vehicle: saline with Tween-80 98 % of control | dose: 12.5 mg/kg/injection, schedule: Q01DX009 (ip), vehicle: saline with Tween-80 87 % of control and 94 % of control | [4] 95 % of control | [5] 90 % of control

O=C(NNC(=O)c1cccc(C(=O)NNC(=O)c2ccc(Cl)c(Cl)c2)n1)c1ccc(Cl)c(Cl)c1
inactive: dose: 12.5 mg/kg/injection, schedule: Q01DX009 (ip), vehicle: Klucel (hydroxypropylcellulose) (HPC) 106 % of control and 98 % of control | dose: 25.0 mg/kg/injection, schedule: Q01DX009 (ip), vehicle: Klucel (hydroxypropylcellulose) (HPC) 108 % of control and 95 % of control | [6] 105 % of control and 122 % of control | [7] 119 % of control

C#CC1(O)CC(c2ccccc2)N(C)C(c2ccccc2)C1 (stereo unspecified)
inactive: dose: 12.5 mg/kg/injection, schedule: Q01DX005 (ip), vehicle: saline with Tween-80 93 % of control | dose: 25.0 mg/kg/injection, schedule: Q01DX005 (ip), vehicle: saline with Tween-80 98 % of control | dose: 50.0 mg/kg/injection, schedule: Q01DX005 (ip), vehicle: saline with Tween-80 98 % of control and 87 % of control

CCCCCNc1ncnc2c1ncn2C1OC(CO)C(O)C1O (stereo unspecified)
inactive: dose: 12.5 mg/kg/injection, schedule: Q04DX003 (ip), vehicle: saline 97 % of control | dose: 25.0 mg/kg/injection, schedule: Q04DX003 (ip), vehicle: saline 108 % of control | dose: 50.0 mg/kg/injection, schedule: Q04DX003 (ip), vehicle: saline 102 % of control | dose: 100.0 mg/kg/injection, schedule: Q04DX003 (ip), vehicle: saline 104 % of control

Cn1c(=O)n2n(c1=O)C1C3C4C3C3C5(COCC135)C42 (stereo unspecified)
inactive: [6] 97 % of control | [7] 92 % of control | dose: 200.0 mg/kg/injection, schedule: Q01DX009 (ip), vehicle: Klucel (hydroxypropylcellulose) (HPC) 97 % of control

Clc1ccc(-c2n[se]c(-c3ccc(Cl)cc3)n2)cc1
inactive: [8] 87 % of control | [9] 89 % of control

CC1OC(=S)N(c2cccc3ccccc23)C1=O (stereo unspecified)
inactive: dose: 100.0 mg/kg/injection, schedule: Q01DX001 (ip), vehicle: saline with Tween-80 93 % of control | dose: 200.0 mg/kg/injection, schedule: Q01DX001 (ip), vehicle: saline with Tween-80 90 % of control | dose: 400.0 mg/kg/injection, schedule: Q01DX001 (ip), vehicle: saline with Tween-80 94 % of control

CN1C(C)(C)CC(O)(C#N)CC1(C)C
inactive: dose: 50.0 mg/kg/injection, schedule: Q01DX005 (ip), vehicle: saline 100 % of control | dose: 100.0 mg/kg/injection, schedule: Q01DX005 (ip), vehicle: saline 98 % of control | dose: 200.0 mg/kg/injection, schedule: Q01DX005 (ip), vehicle: saline 103 % of control

CN(C)c1ccc(C=NCCCN=Cc2ccc(N(C)C)cc2)cc1
inactive: [4] 104 % of control

CCc1c(-c2ccc(Cl)cc2)nc(N)nc1-c1nc(N)nc(-c2ccc(Cl)cc2)c1CC
inactive: dose: 60.0 mg/kg/injection, schedule: Q01DX005 (ip), vehicle: saline 100 % of control | dose: 120.0 mg/kg/injection, schedule: Q01DX005 (ip), vehicle: saline 100 % of control

CC1(C)SC(C(NC(=O)COc2ccccc2)C(=O)O)NC1C(=O)O (stereo unspecified)
inactive: dose: 50.0 mg/kg/injection, schedule: Q04DX003 (ip), vehicle: saline with Tween-80 90 % of control | [10] 95 % of control | [11] 95 % of control

CC1=CCCC(C)(C)C1/C=C(/C#N)C(=O)N=C(N)N (stereo unspecified)
inactive: [12] 99 % of control | [13] 97 % of control | [14] 99 % of control

N#CCCNc1ccc(F)cc1
inactive: [12] 100 % of control | [13] 109 % of control | [14] 104 % of control

COC(=O)CCCOCCCC(=O)OC
inactive: [12] 95 % of control | [13] 99 % of control

CNc1nc(=O)n(-c2ccccc2)c(Cl)c1CCO
inactive: dose: 75.0 mg/kg/injection, schedule: Q01DX001 (ip), vehicle: Klucel (hydroxypropylcellulose) (HPC) 104 % of control | dose: 150.0 mg/kg/injection, schedule: Q01DX001 (ip), vehicle: Klucel (hydroxypropylcellulose) (HPC) 101 % of control | dose: 300.0 mg/kg/injection, schedule: Q01DX001 (ip), vehicle: Klucel (hydroxypropylcellulose) (HPC) 100 % of control

O=[N+]([O-])c1ccc(Cl)c(C(Nc2nncs2)Nc2nncs2)c1
inactive: dose: 60.0 mg/kg/injection, schedule: Q01DX005 (ip), vehicle: Klucel (hydroxypropylcellulose) (HPC) 91 % of control | dose: 120.0 mg/kg/injection, schedule: Q01DX005 (ip), vehicle: Klucel (hydroxypropylcellulose) (HPC) 104 % of control | dose: 240.0 mg/kg/injection, schedule: Q01DX005 (ip), vehicle: Klucel (hydroxypropylcellulose) (HPC) 119 % of control

N#CCc1c(Cl)n(-c2ccccc2)c2ccccc12
inactive: dose: 100.0 mg/kg/injection, schedule: Q01DX001 (ip), vehicle: Klucel (hydroxypropylcellulose) (HPC) 101 % of control | dose: 200.0 mg/kg/injection, schedule: Q01DX001 (ip), vehicle: Klucel (hydroxypropylcellulose) (HPC) 93 % of control | dose: 400.0 mg/kg/injection, schedule: Q01DX001 (ip), vehicle: Klucel (hydroxypropylcellulose) (HPC) 88 % of control

O=c1ccc(=O)c2c(=O)c3cc4[nH]c5ccccc5[nH]c4cc3c(=O)c12
inactive: [8] 94 % of control | [9] 92 % of control | [4] 88 % of control

Cc1ccc(CSCc2c(CSCc3ccc(C)cc3)c(CSCc3ccc(C)cc3)c(CSCc3ccc(C)cc3)c(CSCc3ccc(C)cc3)c2CSCc2ccc(C)cc2)cc1
inactive: [9] 92 % of control | [4] 97 % of control | [5] 86 % of control

CCOC(=O)C(C=O)(NC(=O)c1ccccc1)OCC (stereo unspecified)
inactive: [10] 95 % of control | [11] 90 % of control | dose: 400.0 mg/kg/injection, schedule: Q04DX003 (ip), vehicle: saline with Tween-80 95 % of control

C(=C\c1nc2ccccc2s1)/c1ccc2c(c1)OCO2
inactive: [9] 90 % of control | [4] 90 % of control | [5] 100 % of control

CCCCCC1(c2ccccc2)CCCC(C#N)C1=O (stereo unspecified)
inactive: [10] 101 % of control | [11] 88 % of control

O=C1C=C(NCCc2cc3c(cc2Br)OCO3)CCC1
inactive: [15] 97 % of control | [16] 91 % of control | [17] 95 % of control

O=c1cc(-c2ccc(Cl)cc2)c(-c2ccc(Cl)cc2)nn1CCO
inactive: [15] 95 % of control | [16] 95 % of control | [17] 89 % of control

O=C(O)CC1(c2ccccc2)CCCCC1
inactive: [9] 103 % of control | [4] 100 % of control | [5] 102 % of control

CC(=O)NCCc1nc(-c2nc(C(=O)O)cs2)cs1
inactive: dose: 12.5 mg/kg/injection, schedule: Q01DX009 (ip), vehicle: distilled water + Tween-80 102 % of control | dose: 25.0 mg/kg/injection, schedule: Q01DX009 (ip), vehicle: distilled water + Tween-80 100 % of control | dose: 50.0 mg/kg/injection, schedule: Q01DX009 (ip), vehicle: distilled water + Tween-80 102 % of control | dose: 100.0 mg/kg/injection, schedule: Q01DX009 (ip), vehicle: distilled water + Tween-80 100 % of control

c1ccc(-c2nnc3nn4c(-c5ccccc5)cnnc4c3c2-c2ccccc2)cc1
inactive: [1] 93 % of control | [2] 91 % of control | [3] 90 % of control

Cn1nnc(-c2nnnn2N)n1
inactive: [12] 95 % of control | [13] 94 % of control | [14] 94 % of control
